Test results: patent publication US20150342954A1, “2-BENZYL, 3-(PYRIMIDIN-2-YL) SUBSTITUTED PYRAZOLES USEFUL AS SGC STIMULATORS” (IRONWOOD PHARMACEUTICALS, INC., priority 2011, published 2015)
Read-outs that look alike come from different tables or passages of the source.

Tests used:
[1] = target: T1, Human soluble guanylate cyclase enzyme (hsGC) (Homo sapiens, UniProt Q02108+Q02153); assay: Purified human sGC enzyme synergy assay in the presence of 1 μM sodium nitroprusside (SNP); format: biochemical; conditions: compound at 30 μM, presence of 1 μM SNP; Table 5A
T1 construct: purchased Enzo Inc. ALX-201-177
T1 sequence (Q02153 1-619): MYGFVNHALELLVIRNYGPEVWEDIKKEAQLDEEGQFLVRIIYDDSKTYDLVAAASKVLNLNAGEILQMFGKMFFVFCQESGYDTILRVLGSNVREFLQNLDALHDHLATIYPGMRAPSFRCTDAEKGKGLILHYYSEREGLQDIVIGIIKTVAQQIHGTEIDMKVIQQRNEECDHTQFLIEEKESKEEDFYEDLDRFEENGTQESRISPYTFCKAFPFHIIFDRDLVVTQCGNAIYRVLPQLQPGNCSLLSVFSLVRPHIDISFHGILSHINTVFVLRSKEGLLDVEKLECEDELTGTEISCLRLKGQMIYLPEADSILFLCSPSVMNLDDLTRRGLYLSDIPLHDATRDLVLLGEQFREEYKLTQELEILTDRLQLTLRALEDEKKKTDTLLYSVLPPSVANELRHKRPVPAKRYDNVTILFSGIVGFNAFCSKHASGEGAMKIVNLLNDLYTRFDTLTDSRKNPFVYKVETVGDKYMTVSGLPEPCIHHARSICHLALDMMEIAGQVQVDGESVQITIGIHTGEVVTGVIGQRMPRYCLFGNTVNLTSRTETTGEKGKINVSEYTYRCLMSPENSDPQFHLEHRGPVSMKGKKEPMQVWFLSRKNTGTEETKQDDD
T1 sequence (Q02108 1-690): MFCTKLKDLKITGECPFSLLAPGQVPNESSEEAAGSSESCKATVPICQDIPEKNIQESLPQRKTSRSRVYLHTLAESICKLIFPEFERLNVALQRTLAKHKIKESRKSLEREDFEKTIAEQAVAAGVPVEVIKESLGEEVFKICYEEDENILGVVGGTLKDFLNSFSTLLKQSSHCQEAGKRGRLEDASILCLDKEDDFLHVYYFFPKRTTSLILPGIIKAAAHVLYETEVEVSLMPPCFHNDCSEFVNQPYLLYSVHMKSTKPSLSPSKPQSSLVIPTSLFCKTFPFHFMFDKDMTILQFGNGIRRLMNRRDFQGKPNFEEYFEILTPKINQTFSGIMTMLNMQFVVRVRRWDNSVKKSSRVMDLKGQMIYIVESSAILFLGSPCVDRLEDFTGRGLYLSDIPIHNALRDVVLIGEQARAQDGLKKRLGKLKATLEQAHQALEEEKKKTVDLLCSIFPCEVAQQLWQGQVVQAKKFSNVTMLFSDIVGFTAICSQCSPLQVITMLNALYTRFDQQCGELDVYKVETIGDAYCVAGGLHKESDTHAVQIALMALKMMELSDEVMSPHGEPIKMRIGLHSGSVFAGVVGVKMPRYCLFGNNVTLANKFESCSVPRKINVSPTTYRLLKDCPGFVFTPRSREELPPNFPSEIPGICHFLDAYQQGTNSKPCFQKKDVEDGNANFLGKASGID
In short: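 Purified hsGC (5 ng) incubated 30 min at 37 °C with compound (10 or 30 μM final) in Tris pH 8.0, 300 μM GTP, 1 mM IBMX, 2 mM MgCl2, with or without 1 μM SNP; stopped with cold methanol. cGMP quantified against standard curve; specific activity expressed as fold-change over DMSO control.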

[2] = target: T2, soluble guanylate cyclase (sGC) (Homo sapiens, UniProt Q02108+Q02153); assay: sGC-HEK-cGMP assay (run with SNP incubation); format: cell-based; conditions: for Emax: Table 3A, 10 μM SNP, 100% = 30 μM BAY 41-2272 with 10 μM SNP, read-out: HEK assay Emax-unconstrained (Percent); for HEK MEC-10: concentration that would elicit 10% of the Emax in the presence of 10 μM SNP; for HEK MEC-10 / EC50: Table 3D; for EC50: in the presence of 10 μM SNP
T2 construct: endogenously expressing soluble guanylate cyclase (sGC); endogenous in cells; host or cells: HEK293
T2 sequence (Q02153 1-619): T1 sequence (Q02153 1-619)
T2 sequence (Q02108 1-690): T1 sequence (Q02108 1-690)
In short: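 HEK293 cells with endogenous sGC were pre-treated 15 min at 37 °C with 0.5 mM IBMX, then exposed to test compound plus sodium nitroprusside for 10 min at 37 °C. Cells were lysed in 0.1 M HCl (4 °C, 30 min), and cGMP was quantified by LC/MS against a standard curve. EC50 values came from concentration-response curves.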

[3] = top of concentration-response curve not fitted to 100%
[4] = top of concentration-response curve not fitted to 100%, read-out: HEK assay EC50-unconstrained

SMILES | Enzyme Activity (increase at 30 μM with SNP) [1] | Emax [2, 3] [%] | HEK MEC-10 [2] | EC50 ([2]; read-out: HEK assay EC50) [nM] | EC50 [2, 4] [nM]
Nc1nc(-c2cc(-c3ccon3)n(Cc3ccccc3F)n2)ncc1NC(=O)C1(c2ccccc2)CC1 [Compound 27] | D (10 or <20 fold increase) | 80 to 100 | B (0.01 to <0.1 μM) | < 20000 | 10 to 500
Nc1nc(-c2cc(-c3ccon3)n(Cc3ccccc3F)n2)ncc1NC(=O)C1(F)CC1 [Compound 35] | E (20 to 30 fold increase) | 80 to 100 | A (0.001 to <0.01 μM) | < 20000 | 10 to 500
Nc1nc(-c2cc(-c3ccon3)n(Cc3cccc(F)c3F)n2)ncc1NC(=O)C1(C(F)(F)F)CC1 [Compound 40] | D (10 or <20 fold increase) | 80 to 100 | C (0.1 to <1 μM) | < 20000 | 10 to 500
